Reference: ChEMBL document CHEMBL1201862, “PubChem BioAssay data set” (2004)
Calls of active or inactive are those of the source.

What was measured:
HeLa = assay: viability loss in HeLa cells – cell-based, 24 h, cherry-picked samples, cytotoxicity control, dose response (AID 504726); type: functional; conditions: Homo sapiens;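 also: potency for cytotoxicity as loss of luminescence signal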
ORF 73 = ORF 73 (Human herpesvirus 8, UniProt O40947); assay: KSHV LANA DNA-binding disruption – biochemical, fluorescence polarization, cherry-picked samples, dose response (AID 504725); design: species or system Human gammaherpesvirus 8;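 also: fluorescence polarization of a labeled DNA duplex reporting LANA DNA binding; potency is for inhibitors that block LANA binding to the DNA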
Sequence of ORF 73 (O40947 whole entry): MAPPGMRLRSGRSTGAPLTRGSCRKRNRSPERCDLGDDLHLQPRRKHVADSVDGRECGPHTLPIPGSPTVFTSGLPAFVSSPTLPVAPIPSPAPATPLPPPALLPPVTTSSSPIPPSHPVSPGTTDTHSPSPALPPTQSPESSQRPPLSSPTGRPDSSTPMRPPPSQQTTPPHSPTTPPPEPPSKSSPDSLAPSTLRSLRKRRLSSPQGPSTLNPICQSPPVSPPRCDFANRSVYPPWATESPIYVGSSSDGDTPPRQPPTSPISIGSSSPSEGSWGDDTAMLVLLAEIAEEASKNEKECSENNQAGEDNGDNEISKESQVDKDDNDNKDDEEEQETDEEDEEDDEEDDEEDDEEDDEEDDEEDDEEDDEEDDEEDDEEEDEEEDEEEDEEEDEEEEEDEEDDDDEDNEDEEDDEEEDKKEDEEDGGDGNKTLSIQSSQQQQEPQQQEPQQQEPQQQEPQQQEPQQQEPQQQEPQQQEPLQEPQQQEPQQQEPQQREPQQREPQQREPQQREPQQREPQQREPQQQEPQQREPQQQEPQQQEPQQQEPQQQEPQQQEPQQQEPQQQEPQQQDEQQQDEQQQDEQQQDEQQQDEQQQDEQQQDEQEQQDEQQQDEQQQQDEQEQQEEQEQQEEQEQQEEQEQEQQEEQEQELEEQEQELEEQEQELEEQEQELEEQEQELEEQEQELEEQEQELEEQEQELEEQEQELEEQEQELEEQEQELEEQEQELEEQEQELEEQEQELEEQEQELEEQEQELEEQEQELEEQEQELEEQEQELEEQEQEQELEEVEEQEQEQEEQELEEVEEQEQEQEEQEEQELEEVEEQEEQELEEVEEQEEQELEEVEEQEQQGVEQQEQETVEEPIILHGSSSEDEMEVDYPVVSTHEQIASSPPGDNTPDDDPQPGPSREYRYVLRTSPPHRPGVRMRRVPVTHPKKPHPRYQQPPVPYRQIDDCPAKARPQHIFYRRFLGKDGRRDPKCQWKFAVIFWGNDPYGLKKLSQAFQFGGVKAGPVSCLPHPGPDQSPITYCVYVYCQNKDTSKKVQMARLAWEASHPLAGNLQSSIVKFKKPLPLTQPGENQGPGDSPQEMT

Genome polyprotein = Genome polyprotein (dengue virus type 2, UniProt P29990); assay: flavivirus cap methylation enzyme inhibition – biochemical, confirmation dose response, primary screen (AID 588689); type: functional
Sequence of Genome polyprotein (P29990 2492-3391 limits assumed): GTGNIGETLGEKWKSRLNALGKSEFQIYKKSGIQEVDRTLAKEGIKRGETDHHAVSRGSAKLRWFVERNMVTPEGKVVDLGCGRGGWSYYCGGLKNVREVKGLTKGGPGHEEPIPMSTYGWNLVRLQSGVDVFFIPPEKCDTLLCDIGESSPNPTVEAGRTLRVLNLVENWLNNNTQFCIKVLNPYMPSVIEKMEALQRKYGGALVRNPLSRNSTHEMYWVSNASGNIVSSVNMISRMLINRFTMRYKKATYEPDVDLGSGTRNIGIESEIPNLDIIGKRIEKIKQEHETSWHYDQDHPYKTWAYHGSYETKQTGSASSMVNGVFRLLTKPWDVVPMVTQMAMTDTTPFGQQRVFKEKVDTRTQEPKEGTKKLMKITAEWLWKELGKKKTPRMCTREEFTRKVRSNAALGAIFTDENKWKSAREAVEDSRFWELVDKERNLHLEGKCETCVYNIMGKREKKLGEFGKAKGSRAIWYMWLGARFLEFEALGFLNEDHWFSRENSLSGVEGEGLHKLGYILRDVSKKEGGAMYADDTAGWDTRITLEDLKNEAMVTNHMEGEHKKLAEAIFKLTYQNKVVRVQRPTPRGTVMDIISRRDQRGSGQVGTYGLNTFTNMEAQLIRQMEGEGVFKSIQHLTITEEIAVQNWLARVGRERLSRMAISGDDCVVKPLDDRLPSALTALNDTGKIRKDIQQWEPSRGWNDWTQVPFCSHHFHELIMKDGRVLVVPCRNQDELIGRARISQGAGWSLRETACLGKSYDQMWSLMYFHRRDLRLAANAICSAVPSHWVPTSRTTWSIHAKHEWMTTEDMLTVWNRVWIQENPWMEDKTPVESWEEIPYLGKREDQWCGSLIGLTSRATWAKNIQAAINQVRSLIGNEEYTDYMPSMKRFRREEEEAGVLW

[1] = biological target: Matrix metalloproteinase-14 (Homo sapiens, UniProt P50281); assay: Dose Response confirmation of uHTS hits for a small molecule inhibitors of MT1-MMP activation in a fluorescence assay set 2.; type: functional
Caspase-6 = biological target: T1, Caspase-6 (Homo sapiens, UniProt P55212); assay: inhibition of CASP6 peptide cleavage – biochemical, VEID-R110 fluorescence, cherry-pick, dose response (AID 720632)
T1 sequence (P55212 whole entry): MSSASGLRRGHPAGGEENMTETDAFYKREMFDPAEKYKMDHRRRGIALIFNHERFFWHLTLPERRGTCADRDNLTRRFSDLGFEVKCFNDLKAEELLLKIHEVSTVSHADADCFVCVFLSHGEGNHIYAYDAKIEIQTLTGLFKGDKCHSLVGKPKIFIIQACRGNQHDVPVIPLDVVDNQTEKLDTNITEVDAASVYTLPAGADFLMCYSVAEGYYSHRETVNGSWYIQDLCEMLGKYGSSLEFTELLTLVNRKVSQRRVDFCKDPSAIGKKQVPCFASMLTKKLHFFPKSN

Caspase-9 = Caspase-9 (Homo sapiens, UniProt P55211); assay: inhibitors of purified CASP9 protease – biochemical, fluorescence, plate reader, cherry-picked samples, selectivity assay for caspase-6 inhibitor project, dose response (AID 743293)
Sequence of Caspase-9 (P55211 1-315 limits assumed): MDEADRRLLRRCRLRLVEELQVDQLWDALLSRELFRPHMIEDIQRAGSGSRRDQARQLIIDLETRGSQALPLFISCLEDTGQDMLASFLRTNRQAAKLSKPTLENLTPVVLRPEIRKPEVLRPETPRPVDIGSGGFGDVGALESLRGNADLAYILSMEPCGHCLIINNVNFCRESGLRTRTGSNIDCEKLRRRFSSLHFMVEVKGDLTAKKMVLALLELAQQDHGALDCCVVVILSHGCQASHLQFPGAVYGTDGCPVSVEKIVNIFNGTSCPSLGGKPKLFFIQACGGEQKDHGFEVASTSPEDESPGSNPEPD
Sequence of Caspase-9 (P55211 331-416 limits assumed): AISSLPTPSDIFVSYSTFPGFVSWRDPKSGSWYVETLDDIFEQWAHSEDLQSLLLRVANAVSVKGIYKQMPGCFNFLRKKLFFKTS

Streptococcus = assay: GAS UMAA2166 growth inhibition – luminescence, BacTiterGlo, counter-screen for streptokinase expression inhibitor project, dose response (AID 1915); type: functional, organism-based;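 also: potency for reduction of bacterial viability or growth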
[2] = biological target: T2, Apoptotic protease-activating factor 1 (Homo sapiens, UniProt O14727); type: functional
T2 sequence (O14727 whole entry): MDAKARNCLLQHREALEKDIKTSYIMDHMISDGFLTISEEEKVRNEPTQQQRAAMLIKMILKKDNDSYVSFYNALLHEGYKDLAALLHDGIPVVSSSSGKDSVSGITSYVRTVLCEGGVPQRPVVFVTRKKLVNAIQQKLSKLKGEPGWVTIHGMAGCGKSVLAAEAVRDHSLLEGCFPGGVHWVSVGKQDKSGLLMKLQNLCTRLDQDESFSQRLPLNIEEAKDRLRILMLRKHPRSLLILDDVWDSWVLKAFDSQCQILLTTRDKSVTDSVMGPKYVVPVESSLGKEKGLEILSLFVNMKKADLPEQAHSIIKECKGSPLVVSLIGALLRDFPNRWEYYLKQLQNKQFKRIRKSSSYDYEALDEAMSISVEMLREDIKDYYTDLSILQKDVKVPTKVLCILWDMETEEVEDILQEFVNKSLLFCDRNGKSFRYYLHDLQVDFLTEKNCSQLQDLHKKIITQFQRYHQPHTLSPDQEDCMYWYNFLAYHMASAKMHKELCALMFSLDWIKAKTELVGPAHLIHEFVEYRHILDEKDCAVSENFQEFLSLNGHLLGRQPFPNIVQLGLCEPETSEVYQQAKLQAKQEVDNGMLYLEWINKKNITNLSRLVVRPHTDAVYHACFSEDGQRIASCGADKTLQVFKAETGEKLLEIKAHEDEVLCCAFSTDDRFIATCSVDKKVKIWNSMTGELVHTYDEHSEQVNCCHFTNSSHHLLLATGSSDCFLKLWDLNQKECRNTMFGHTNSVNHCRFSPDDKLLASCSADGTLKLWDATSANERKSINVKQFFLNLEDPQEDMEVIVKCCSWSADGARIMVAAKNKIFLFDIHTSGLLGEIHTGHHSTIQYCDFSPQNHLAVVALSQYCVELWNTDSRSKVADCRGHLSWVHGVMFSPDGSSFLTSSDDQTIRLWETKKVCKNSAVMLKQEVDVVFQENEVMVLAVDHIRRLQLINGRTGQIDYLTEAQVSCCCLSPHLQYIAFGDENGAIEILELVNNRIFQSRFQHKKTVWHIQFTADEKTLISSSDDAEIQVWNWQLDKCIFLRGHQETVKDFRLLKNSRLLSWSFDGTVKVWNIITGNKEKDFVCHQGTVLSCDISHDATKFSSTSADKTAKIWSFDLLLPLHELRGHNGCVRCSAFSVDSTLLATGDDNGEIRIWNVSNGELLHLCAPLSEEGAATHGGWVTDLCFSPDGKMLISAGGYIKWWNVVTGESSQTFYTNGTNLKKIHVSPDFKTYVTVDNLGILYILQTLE

Protein RecA = biological target: T3, Protein RecA (Mycobacterium tuberculosis, UniProt P9WHJ3); assay: Fluorescence Cell-Free Homogeneous Dose Retest to Identify Inhibitors of RecA-Intein Splicing Activity. [Related pubchem assays (depositor defined):AID2097, AID2223, AID489010, AID492950]; type: functional
T3 sequence (P9WHJ3 whole entry): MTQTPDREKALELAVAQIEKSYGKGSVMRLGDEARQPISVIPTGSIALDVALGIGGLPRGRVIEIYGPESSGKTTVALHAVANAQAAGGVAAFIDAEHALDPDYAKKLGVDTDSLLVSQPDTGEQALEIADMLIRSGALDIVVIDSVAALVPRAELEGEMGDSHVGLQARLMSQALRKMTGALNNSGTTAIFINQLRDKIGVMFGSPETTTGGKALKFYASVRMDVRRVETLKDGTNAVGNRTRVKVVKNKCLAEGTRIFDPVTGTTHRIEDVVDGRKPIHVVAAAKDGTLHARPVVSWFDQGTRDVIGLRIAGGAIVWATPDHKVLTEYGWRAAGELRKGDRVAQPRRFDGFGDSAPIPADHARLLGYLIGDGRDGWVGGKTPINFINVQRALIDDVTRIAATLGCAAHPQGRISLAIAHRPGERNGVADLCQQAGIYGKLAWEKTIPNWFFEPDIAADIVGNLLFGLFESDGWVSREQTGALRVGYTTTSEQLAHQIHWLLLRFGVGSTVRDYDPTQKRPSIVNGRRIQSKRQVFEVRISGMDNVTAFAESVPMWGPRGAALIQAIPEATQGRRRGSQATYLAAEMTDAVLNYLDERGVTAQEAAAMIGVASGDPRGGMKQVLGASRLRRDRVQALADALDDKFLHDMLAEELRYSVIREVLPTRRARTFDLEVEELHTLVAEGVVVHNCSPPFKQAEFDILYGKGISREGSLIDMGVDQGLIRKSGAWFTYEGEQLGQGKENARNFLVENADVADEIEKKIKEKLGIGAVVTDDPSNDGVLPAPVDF

[3] = viability loss in CEM21 cells – cell-based, CellTiter-Glo luminescence, cherry-picked, cytotoxicity control for viral fusion inhibitor project, dose response (AID 652042); type: functional;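 also: potency for signal decrease meaning cytotoxicity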
[4] = HIV-1 AD8 envelope cell-cell fusion blockers – cherry-pick, dose response (AID 652062); type: functional, cell-based;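 also: luciferase signal from cell-cell fusion driven by HIV-1 clade B AD8 Env; potency is for inhibitors of fusion seen as a drop in luminescence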

| Compound | AC50 (HeLa) | AC50 (ORF 73) | IC50 (Genome polyprotein) | IC50 [1] | AC50 (Caspase-6) | AC50 (Caspase-9) | EC50 (Streptococcus) | IC50 [2] | EC50 (Protein RecA) | AC50 [3] | AC50 [4] |
| --- | --- | --- | --- | --- | --- | --- | --- | --- | --- | --- | --- |
| O=c1ccc2c(-c3ccccc3S(=O)(=O)O)c3ccc(O)c(O)c3oc-2c1O [PYROGALLOL RED] | 8.94 µM (active) | 0.526 µM (active) | 4.06 µM (active) | 19.6 µM (active) | 0.192 µM (active) | > 70 µM (inactive) | – | – | – | – | – |
| CCCCCCCCCCOC(=O)C[n+]1c(COc2ccccc2OC)n(C)c2ccccc21 | – | – | – | – | – | – | 12.7 µM (active) | 14.3 µM (active) | 8.91 µM (active) | 6.91 µM (active) | 4.02 µM (active) |
